In US5824771A, “Cyclic CRF agonists” (The Salk Institute for Biological Studies, priority 1997, dated 1998):
“Also recorded” adds a separate entry of the source. Bridge positions count the residues as written; N and C are the ends. Square brackets hold non-standard residues; d marks the D form. Ends that are not written are not given here. Peptide text beside a SMILES is read from it. Nle = CCCC[C@H](N)C(=O)O

How the values were obtained:
[1] = Relief of inflammation on administration; format: in vivo; settings: administration of the peptide
[2] = background statement; cited from earlier work
[3] = background statements; injected peripherally or iv, mammals; cited from earlier work
[4] = tested on: ACTH and β-endorphin secretion; settings: background statements; in vitro and in vivo or iv; cited from earlier work

For `CCCC[C@H](NC(=O)[C@H](CCCCN)NC(=O)[C@H](CCCNC(=N)N)NC(=O)[C@H](CC(C)C)NC(=O)[C@H](CC(C)C)NC(=O)[C@H](CCC(=O)O)NC(=O)[C@@H](CC(C)C)NC(=O)[C@H](CO)NC(=O)[C@H](CC(C)C)NC(=O)[C@H](CC(=O)O)NC(=O)[C@@H](NC(=O)[C@H](CO)NC(=O)[C@@H](NC(=O)[C@H]1CCCN1C(=O)[C@@H]1CCCN1C(C)=O)[C@@H](C)CC)[C@@H](C)CC)C(=O)N[C@H](C(=O)N[C@@H](CCC(=O)O)C(=O)N[C@H](C(=O)N[C@@H](CCC(=O)O)C(=O)N[C@@H](CCCCN)C(=O)N[C@@H](CCC(N)=O)C(=O)N[C@@H](CCC(=O)O)C(=O)N[C@@H](CCCCN)C(=O)N[C@@H](CCC(=O)O)C(=O)N[C@@H](CCCCN)C(=O)N[C@@H](CCC(N)=O)C(=O)N[C@H]1CCC(=O)NCCCC[C@@H](C(=O)N[C@@H](CC(N)=O)C(=O)N[C@@H](CCCNC(=N)N)C(=O)N[C@@H](CC(C)C)C(=O)N[C@@H](CC(C)C)C(=O)N[C@@H](CC(C)C)C(=O)N[C@@H](CC(=O)O)C(=O)N[C@H](C(=O)N[C@H](C(N)=O)[C@@H](C)CC)[C@@H](C)O)NC(=O)[C@@H](Cc2c[nH]cn2)NC(=O)[C@H](C)NC1=O)[C@@H](C)CC)[C@@H](C)CC` [Example 8 B, (cyclo 29-32)[Ac-Pro^3, D-Pro^4, D-Leu^11, Nle^17, Glu^29, D-His^31, Lys^32]-sauvagine(3-40)] (Ac-P[dP]ISIDLS[dL]ELLRK[Nle]IEIEKQEKEKQEA[dH]KNRLLLDTI-NH2; lactam 27-30), which “relief of inflammation, in words” value [1] is on record?
The value was “relieves inflammation”.

Which “relief of inflammation, in words” value [1] does the source give for `CCCC[C@H](NC(=O)[C@H](CCC(=O)O)NC(=O)[C@H](CC(C)C)NC(=O)[C@H](CCCC)NC(=O)[C@H](CCC(=O)O)NC(=O)[C@H](CCCNC(=N)N)NC(=O)[C@H](CC(C)C)NC(=O)[C@H](CC(C)C)NC(=O)[C@H](Cc1c[nH]cn1)NC(=O)[C@@H](Cc1ccccc1)NC(=O)[C@@H](NC(=O)[C@H](CC(C)C)NC(=O)[C@H](CC(=O)O)NC(=O)[C@H](CC(C)C)NC(=O)[C@H](CO)NC(=O)[C@@H](NC(=O)[C@H]1CCCN1C(=O)[C@@H]1CCCN1C(C)=O)[C@@H](C)CC)[C@@H](C)O)C(=O)N[C@@H](C)C(=O)N[C@@H](CCCCN)C(=O)N[C@@H](C)C(=O)N[C@@H](CCC(=O)O)C(=O)N[C@@H](CCC(N)=O)C(=O)N[C@@H](CCC(=O)O)C(=O)N[C@@H](C)C(=O)N[C@@H](CCC(=O)O)C(=O)N[C@H]1CCC(=O)NCCCC[C@@H](C(=O)N[C@@H](CC(N)=O)C(=O)N[C@@H](CCCNC(=N)N)C(=O)N[C@@H](CC(C)C)C(=O)N[C@@H](CC(C)C)C(=O)N[C@@H](CC(C)C)C(=O)N[C@@H](CCC(=O)O)C(=O)N[C@@H](CCC(=O)O)C(=O)N[C@@H](C)C(N)=O)NC(=O)[C@@H](Cc2c[nH]cn2)NC(=O)[C@H](C)NC1=O` [Example 8 C, (cyclo 30-33)[Ac-Pro^4, D-Pro^5, D-Phe^12, Nle^18,21, Glu^30, D-His^32, Lys^33]-α-helical CRF(4-41)] (Ac-P[dP]ISLDLT[dF]HLLRE[Nle]LE[Nle]AKAEQEAEEA[dH]KNRLLLEEA-NH2; lactam 27-30) here?
The value was “relieves inflammation”.

With `CCCC[C@H](NC(=O)[C@H](CCC(=O)O)NC(=O)[C@@H](NC(=O)[C@H](CCCC)NC(=O)[C@H](CC(N)=O)NC(=O)[C@H](CCCNC(=N)N)NC(=O)[C@H](CC(C)C)NC(=O)[C@H](CC(C)C)NC(=O)[C@H](Cc1c[nH]cn1)NC(=O)[C@@H](Cc1ccccc1)NC(=O)[C@@H](NC(=O)[C@H](CC(C)C)NC(=O)[C@H](CC(=O)O)NC(=O)[C@@H](NC(=O)[C@H](CO)NC(=O)[C@@H](NC(=O)[C@H]1CCCN1C(=O)[C@@H]1CCCN1C(C)=O)[C@@H](C)CC)[C@@H](C)CC)[C@@H](C)O)[C@@H](C)CC)C(=O)N[C@@H](C)C(=O)N[C@@H](CCCNC(=N)N)C(=O)N[C@H](C(=O)N[C@@H](CCC(=O)O)C(=O)N[C@@H](CC(N)=O)C(=O)N[C@@H](CCC(=O)O)C(=O)N[C@@H](CCCNC(=N)N)C(=O)N[C@@H](CCC(=O)O)C(=O)N[C@H]1CCC(=O)NCCCC[C@@H](C(=O)N[C@@H](CC(N)=O)C(=O)N[C@@H](CCCNC(=N)N)C(=O)N[C@@H](CCCCN)C(=O)N[C@@H](Cc2ccc(O)cc2)C(=O)N[C@@H](CC(C)C)C(=O)N[C@@H](CC(=O)O)C(=O)N[C@@H](CCC(=O)O)C(=O)N[C@H](C(N)=O)C(C)C)NC(=O)[C@@H](Cc2c[nH]cn2)NC(=O)[C@H](C)NC1=O)[C@@H](C)CC` [Example 8 E, (cyclo 30-33)[Ac-Pro^4, D-Pro^5, D-Phe^12, Nle^18,21, Glu^30, D-His^32, Lys^33]-sucker urotensin(4-41)] (Ac-P[dP]ISIDLT[dF]HLLRN[Nle]IE[Nle]ARIENEREEA[dH]KNRKYLDEV-NH2; lactam 27-30) as the compound, how does the “relief of inflammation, in words” value [1] read?
The value was “relieves inflammation”.

What does the source list for `CC[C@H](C)[C@H](NC(=O)[C@@H](NC(=O)[C@H](CC(=O)O)NC(=O)[C@H](CC(C)C)NC(=O)[C@H](CC(C)C)NC(=O)[C@H](CC(C)C)NC(=O)[C@H](CCCNC(=N)N)NC(=O)[C@H](CC(N)=O)NC(=O)[C@H](CC(N)=O)NC(=O)[C@H](C)NC(=O)[C@H](C)NC(=O)[C@H](CCC(N)=O)NC(=O)[C@H](CCC(N)=O)NC(=O)[C@H](CCCCN)NC(=O)[C@H](CCC(=O)O)NC(=O)[C@H](CCCCN)NC(=O)[C@H](CCC(=O)O)NC(=O)[C@H](CCC(N)=O)NC(=O)[C@H](CCCCN)NC(=O)[C@H](CCC(=O)O)NC(=O)[C@@H](NC(=O)[C@H](CCC(=O)O)NC(=O)[C@@H](NC(=O)[C@H](CCSC)NC(=O)[C@H](CCCCN)NC(=O)[C@H](CCCNC(=N)N)NC(=O)[C@H](CC(C)C)NC(=O)[C@H](CC(C)C)NC(=O)[C@H](CCC(=O)O)NC(=O)[C@H](CC(C)C)NC(=O)[C@H](CO)NC(=O)[C@H](CC(C)C)NC(=O)[C@H](CC(=O)O)NC(=O)[C@@H](NC(=O)[C@H](CO)NC(=O)[C@@H](NC(=O)[C@@H]1CCCN1C(=O)[C@@H]1CCCN1C(=O)CNC(=O)[C@@H]1CCC(=O)N1)[C@@H](C)CC)[C@@H](C)CC)[C@@H](C)CC)[C@@H](C)CC)[C@@H](C)O)C(N)=O` [sauvagine]?
gastric acid production, in words [2]: inhibit gastric acid production; lowering of blood pressure, in words [3]: lower blood pressure; stimulation of ACTH and β-endorphin secretion / activities, in words [4]: stimulate the secretion of ACTH and β-endorphin

For “oCRF: ovine corticotropin releasing factor, a 41-residue amidated peptide; the laboratory Standard (SQEPPISLDLTFHLLREVLEMTKADQLAQQAHSNRKLLDIA-NH2; UniProt P01142 148-188, looked up)”, which “gastric acid production, in words” value [2] is on record?
Its value is “inhibit gastric acid production”.

What about the “lowering of blood pressure, in words” value [3] of the same compound?
Its value is “substantially lower blood pressure”.

And the “stimulation of ACTH and β-endorphin secretion / activities, in words” value [4]?
The value was “stimulate the secretion of ACTH and β-endorphin; also recorded: stimulate ACTH and β-endorphin-like activities (β-END-Li) in vitro and in vivo”.

Which “gastric acid production, in words” value [2] does the source give for “r/hCRF: rat/human CRF, a homologous amidated hentetracontapeptide; alternate standard (SEEPPISLDLTFHLLREVLEMARAEQLAQQAHSNRKLMEII-NH2; UniProt P06850 154-194, looked up)” here?
The value was “inhibit gastric acid production”.

What about the “lowering of blood pressure, in words” value [3] of the same compound?
Its value is “substantially lower blood pressure”.

What about the “stimulation of ACTH and β-endorphin secretion / activities, in words” value [4] of the same compound?
Its value is “stimulate ACTH and β-endorphin-like activities (β-END-Li) in vitro and in vivo”.
